According to PubChem BioAssay (NCI):
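96-well plates; 48 h exposure; 5 concentrations. Endpoints by linear interpolation between flanking doses. Not reached: highest tested concentration assigned. GI50 marks 50% less growth. Definition used: TGI = concentration required for complete inhibition of growth.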

Experiments:
Assay in all cases: growth of human tumour cells (NCI), 48 h
[1] = system: HCC-2998 colon
[2] = system: UACC-257 melanoma
[3] = system: MCF7 breast
[4] = system: RXF 393 renal
[5] = system: HOP-62 NSCLC
[6] = system: K-562 leukemia
[7] = system: SNB-75 CNS
[8] = system: SR leukemia
[9] = system: OVCAR-3 ovarian
[10] = system: CCRF-CEM leukemia
[11] = system: NCI/ADR-RES ovarian
[12] = system: HL-60(TB) leukemia
[13] = system: SW-620 colon
[14] = system: LOX IMVI melanoma
[15] = system: MALME-3M melanoma
[16] = system: PC-3 prostate
[17] = system: SF-539 CNS
[18] = system: MOLT-4 leukemia
[19] = system: A549 NSCLC
[20] = system: SF-268 CNS
[21] = system: SK-MEL-28 melanoma
[22] = system: UO-31 renal
[23] = system: DU-145 prostate
[24] = system: OVCAR-8 ovarian
[25] = system: TK-10 renal
[26] = system: NCI-H460 lung
[27] = system: SK-MEL-5 melanoma
[28] = system: MDA-MB-435
[29] = system: M14 melanoma
[30] = system: RPMI-8226 leukemia
[31] = system: KM12 colon
[32] = system: EKVX NSCLC
[33] = system: NCI-H522 lung
[34] = system: HOP-92 NSCLC
[35] = system: OVCAR-4 ovarian
[36] = system: ACHN renal
[37] = system: NCI-H226 lung
[38] = system: UACC-62 melanoma
[39] = system: SK-MEL-2 melanoma
[40] = system: 786-0 renal
[41] = system: T-47D breast
[42] = system: BT-549 breast
[43] = system: MDA-MB-231 breast
[44] = system: CAKI-1 renal
[45] = system: NCI-H23 lung
[46] = system: IGROV1 ovarian
[47] = system: SNB-19 CNS
[48] = system: SN12C renal
[49] = system: HT29 colon
[50] = system: SF-295 CNS
[51] = system: U251 CNS
[52] = system: HCT-15 colon
[53] = system: HS 578T breast
[54] = system: OVCAR-5 ovarian
[55] = system: HCT-116 colon
[56] = system: COLO 205 colon
[57] = system: SK-OV-3 ovarian
[58] = system: A498 renal

CC(O)[C@H](NC(=O)N[C@@H](CC(N)=O)c1nc(N2CCNCC2)no1)C(=O)O (stereo not given in full)
GI50 [1]: > 100 µM | TGI [1]: > 100 µM | GI50 [2]: > 100 µM | TGI [2]: > 100 µM | GI50 [3]: > 100000 nM | TGI [3]: > 100 µM | GI50 [4]: > 100000 nM | TGI [4]: > 100 µM | GI50 [5]: > 100 µM | TGI [5]: > 100 µM | GI50 [6]: > 100 µM | TGI [6]: > 100 µM | GI50 [7]: > 100 µM | TGI [7]: > 100 µM | GI50 [8]: > 100 µM | TGI [8]: > 100 µM | GI50 [9]: > 100000 nM | TGI [9]: > 100 µM | GI50 [10]: > 100 µM | TGI [10]: > 100 µM | GI50 [11]: > 100 µM | TGI [11]: > 100 µM | GI50 [12]: > 100 µM | TGI [12]: > 100 µM | GI50 [13]: > 100 µM | TGI [13]: > 100 µM | GI50 [14]: > 100000 nM | TGI [14]: > 100 µM | GI50 [15]: > 100000 nM | TGI [15]: > 100 µM | GI50 [16]: > 100 µM | TGI [16]: > 100 µM | GI50 [17]: > 100000 nM | TGI [17]: > 100 µM | GI50 [18]: > 100000 nM | TGI [18]: > 100 µM | GI50 [19]: > 100 µM | TGI [19]: > 100 µM | GI50 [20]: > 100 µM | TGI [20]: > 100 µM | GI50 [21]: > 100 µM | TGI [21]: > 100 µM | GI50 [22]: > 100000 nM | TGI [22]: > 100 µM | GI50 [23]: > 100 µM | TGI [23]: > 100 µM | GI50 [24]: > 100 µM | TGI [24]: > 100 µM | GI50 [25]: > 100 µM | TGI [25]: > 100 µM | GI50 [26]: > 100 µM | TGI [26]: > 100 µM | GI50 [27]: > 100000 nM | TGI [27]: > 100 µM | GI50 [28]: > 100000 nM | TGI [28]: > 100 µM | GI50 [29]: > 100000 nM | TGI [29]: > 100 µM | GI50 [30]: > 100 µM | TGI [30]: > 100 µM | GI50 [31]: > 100000 nM | TGI [31]: > 100 µM | GI50 [32]: > 100 µM | TGI [32]: > 100 µM | GI50 [33]: > 100000 nM | TGI [33]: > 100 µM | GI50 [34]: > 100000 nM | TGI [34]: > 100 µM | GI50 [35]: > 100 µM | TGI [35]: > 100 µM | GI50 [36]: > 100000 nM | TGI [36]: > 100 µM | GI50 [37]: > 100 µM | TGI [37]: > 100 µM | GI50 [38]: > 100000 nM | TGI [38]: > 100 µM | GI50 [39]: > 100000 nM | TGI [39]: > 100 µM | GI50 [40]: > 100000 nM | TGI [40]: > 100 µM | GI50 [41]: > 100000 nM | TGI [41]: > 100 µM | GI50 [42]: > 100 µM | TGI [42]: > 100 µM | GI50 [43]: > 100000 nM | TGI [43]: > 100 µM | GI50 [44]: > 100 µM | TGI [44]: > 100 µM | GI50 [45]: > 100 µM | TGI [45]: > 100 µM | GI50 [46]: > 100 µM | TGI [46]: > 100 µM | GI50 [47]: > 100 µM | TGI [47]: > 100 µM | GI50 [48]: > 100 µM | TGI [48]: > 100 µM | GI50 [49]: > 100000 nM | TGI [49]: > 100 µM | GI50 [50]: > 100000 nM | TGI [50]: > 100 µM | GI50 [51]: > 100 µM | TGI [51]: > 100 µM | GI50 [52]: > 100000 nM | TGI [52]: > 100 µM | GI50 [53]: > 100 µM | TGI [53]: > 100 µM | GI50 [54]: > 100 µM | TGI [54]: > 100 µM | GI50 [55]: > 100000 nM | TGI [55]: > 100 µM | GI50 [56]: > 100 µM | TGI [56]: > 100 µM | GI50 [57]: > 100 µM | TGI [57]: > 100 µM

COc1cc(-c2nn(-c3cccc(NC(=O)CCN4CCN(c5ccccc5)CC4)c3)cc2-c2ccncc2)ccc1Cl
GI50 [1]: 3.56 µM | TGI [1]: > 100 µM | GI50 [2]: 5.29 µM | TGI [2]: 95.5 µM | GI50 [3]: 2550 nM | TGI [3]: > 100 µM | GI50 [4]: 1910 nM | TGI [4]: 5.18 µM | GI50 [5]: 4.32 µM | TGI [5]: > 100 µM | GI50 [7]: 4.13 µM | TGI [7]: > 100 µM | GI50 [9]: 2680 nM | TGI [9]: 9.73 µM | GI50 [10]: 3.38 µM | TGI [10]: > 100 µM | GI50 [11]: 3.18 µM | TGI [11]: > 100 µM | GI50 [12]: 3.63 µM | TGI [12]: > 100 µM | GI50 [13]: 4.09 µM | TGI [13]: > 100 µM | GI50 [14]: 2020 nM | TGI [14]: 5.47 µM | GI50 [15]: 2730 nM | TGI [15]: 14.3 µM | GI50 [16]: 3.1 µM | TGI [16]: > 100 µM | GI50 [17]: 2530 nM | TGI [17]: 18.4 µM | GI50 [18]: 2890 nM | TGI [18]: > 100 µM | GI50 [19]: 4.91 µM | TGI [19]: > 100 µM | GI50 [20]: 3.56 µM | TGI [20]: > 100 µM | GI50 [58]: 3.29 µM | TGI [58]: 17.9 µM | GI50 [21]: 3.19 µM | TGI [21]: > 100 µM | GI50 [22]: 2900 nM | TGI [22]: 48 µM | GI50 [23]: 4.35 µM | TGI [23]: > 100 µM | GI50 [24]: 4.5 µM | TGI [24]: > 100 µM | GI50 [25]: 3.69 µM | TGI [25]: > 100 µM | GI50 [26]: 3.11 µM | TGI [26]: 31.3 µM | GI50 [27]: 2190 nM | TGI [27]: 5.36 µM | GI50 [28]: 2570 nM | TGI [28]: 13 µM | GI50 [29]: 2310 nM | TGI [29]: 7.01 µM | GI50 [31]: 2450 nM | TGI [31]: 9.97 µM | GI50 [32]: 3.31 µM | TGI [32]: > 100 µM | GI50 [33]: 2430 nM | TGI [33]: 9.69 µM | GI50 [34]: 2920 nM | TGI [34]: 19.5 µM | GI50 [35]: 3.03 µM | TGI [35]: > 100 µM | GI50 [36]: 2670 nM | TGI [36]: > 100 µM | GI50 [37]: 4.13 µM | TGI [37]: > 100 µM | GI50 [38]: 2490 nM | TGI [38]: 8.01 µM | GI50 [39]: 2450 nM | TGI [39]: 6.85 µM | GI50 [40]: 1830 nM | TGI [40]: 4.23 µM | GI50 [41]: 2090 nM | TGI [41]: > 100 µM | GI50 [42]: 3.17 µM | TGI [42]: > 100 µM | GI50 [43]: 2280 nM | TGI [43]: 7.91 µM | GI50 [45]: 3.09 µM | TGI [45]: > 100 µM | GI50 [46]: 4.12 µM | TGI [46]: > 100 µM | GI50 [47]: 4.38 µM | TGI [47]: > 100 µM | GI50 [48]: 3.72 µM | TGI [48]: > 100 µM | GI50 [49]: 2660 nM | TGI [49]: > 100 µM | GI50 [50]: 2410 nM | TGI [50]: 18 µM | GI50 [51]: 3.13 µM | TGI [51]: > 100 µM | GI50 [52]: 2620 nM | TGI [52]: > 100 µM | GI50 [53]: 4.61 µM | TGI [53]: > 100 µM | GI50 [54]: 3.15 µM | TGI [54]: > 100 µM | GI50 [55]: 2850 nM | TGI [55]: > 100 µM | GI50 [57]: 4.27 µM | TGI [57]: > 100 µM
